The target of test [1] is T1, human recombinant histamine H2 receptor (Homo sapiens, UniProt P25021).
T1 construct: expressed in transfected cells; host or cells: Chinese hamster ovary (CHO) K1 cells
Description: Histamine H2 radioligand binding assay. The following applies: [125I]Aminopotentidine specific binding, read-out: Percentage Inhibition, Histamine Binding (1 μM) H2. How it is done:
To evaluate in radioligand binding assays the activity of compounds of the invention, human recombinant histamine H2 receptor expressed in Chinese hamster ovary (CHO) K1 cells [Ruat, M., Proc. Natl. Acad. Sci. USA. (1990), 87(5):1658] in a 50 mM Phosphate buffer, pH 7.4 was used. Compounds of the invention were incubated with 0.1 nM [^125I]Aminopotentidine for 120 min. at 25° C. Non-specific binding was estimated in the presence of 3 μM Tiotidine. Receptor proteins were filtered and washed, the filters were then counted to determine [^125I]Aminopotentidine specifically bound. Compounds were screened at 1 μM or lower, using 1% DMSO as vehicle. Biochemical assay results are presented as the percent inhibition of specific binding in Table 2.

For test [2], the target named is T2, human recombinant serotonin (5-Hydroxytryptamine) 5-HT6 receptor (Homo sapiens, UniProt P50406).
T2 construct: expressed in transfected cells; host or cells: human HeLa cells
T2 sequence (P50406 whole entry): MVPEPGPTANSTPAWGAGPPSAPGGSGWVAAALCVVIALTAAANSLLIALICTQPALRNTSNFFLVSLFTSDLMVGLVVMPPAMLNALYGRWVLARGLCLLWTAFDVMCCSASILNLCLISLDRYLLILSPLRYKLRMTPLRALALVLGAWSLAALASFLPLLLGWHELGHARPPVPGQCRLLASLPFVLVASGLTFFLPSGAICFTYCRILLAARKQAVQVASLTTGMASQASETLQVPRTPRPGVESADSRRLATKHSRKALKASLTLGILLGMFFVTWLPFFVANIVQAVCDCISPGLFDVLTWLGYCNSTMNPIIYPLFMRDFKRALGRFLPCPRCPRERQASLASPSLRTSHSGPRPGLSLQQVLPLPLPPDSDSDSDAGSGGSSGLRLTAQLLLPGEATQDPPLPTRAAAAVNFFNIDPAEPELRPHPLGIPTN
Description: Serotonin 5-HT6 radioligand binding assay. As to conditions: [3H]LSD specific binding, read-out: Percent Inhibition of ligand binding, Serotonin (1 μM ligand concentration) 5-HT6. As to the method:
To evaluate in radioligand binding assays the activity of compounds of the invention, human recombinant serotonin (5-Hydroxytryptamine) 5-HT6 receptor expressed in human HeLa cells [Monsma, F. J. Jr et al., Mol. Pharmacol. (1993), 43:320] in a modified Tris-HCl buffer (50 mM Tris-HCl, pH 7.4, 150 mM NaCl, 2 mM Ascorbic Acid, 0.001% BSA) was used. Compounds of the invention were incubated with 1.5 nM [3H]Lysergic acid diethylamide (LSD) for 120 min. at 37° C. Non-specific binding was estimated in the presence of 5 μM Serotonin (5-HT). Receptor proteins were filtered and washed, the filters were then counted to determine[3H]LSD specifically bound. Compounds were screened at 1 μM or lower, using 1% DMSO as vehicle. Biochemical assay results are presented as the percent inhibition of specific binding in Table 4.

The target in test [3] is T3, human recombinant adrenergic α2A receptor (Homo sapiens, UniProt P08913).
T3 construct: expressed in transfected cells; host or cells: insect Sf9 cells
T3 sequence (P08913 1-465): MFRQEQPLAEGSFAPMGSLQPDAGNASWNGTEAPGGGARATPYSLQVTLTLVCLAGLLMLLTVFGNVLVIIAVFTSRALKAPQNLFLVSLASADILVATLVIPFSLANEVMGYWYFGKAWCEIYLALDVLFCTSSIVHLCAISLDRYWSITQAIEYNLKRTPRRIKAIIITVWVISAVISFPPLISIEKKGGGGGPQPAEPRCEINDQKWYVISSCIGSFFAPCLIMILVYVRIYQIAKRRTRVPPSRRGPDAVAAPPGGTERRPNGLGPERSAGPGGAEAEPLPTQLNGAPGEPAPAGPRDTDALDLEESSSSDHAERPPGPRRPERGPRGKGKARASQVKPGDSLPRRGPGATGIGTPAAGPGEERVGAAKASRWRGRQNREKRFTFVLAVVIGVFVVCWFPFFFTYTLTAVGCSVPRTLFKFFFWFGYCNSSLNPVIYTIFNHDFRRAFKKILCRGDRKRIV
Description: Adrenergic α2A radioligand binding assay. As to conditions: 1 μM; [3H]MK-912 specific binding; read-out: Percent Inhibition of ligand binding, Adrenergic (1 μM ligand conc.) α2A. As to the method:
To evaluate in radioligand binding assays the activity of compounds of the invention, human recombinant adrenergic α2A receptor expressed in insect Sf9 cells [Uhlen, S et al. J. Pharmacol. Exp. Ther. (1994), 271:1558] in a modified Tris-HCl buffer (50 mM Tris-HCl, pH 7.4, 12.5 mM MgCl2, 2 mM EDTA) was used. Compounds of invention were incubated with 1 nM [^3H]MK-912 for 60 min. at 25° C. MK912 was (2S-trans)-1,3,4,5′,6,6′,7,12b-octahydro-1′,3′-dimethyl-spiro[2H-benzofuro[2,3-a]quinolizine-2,4′(1′H)-pyrimidin]-2′(3′H)-one hydrochloride Non-specific binding was estimated in the presence of 10 μM WB-4101 (2-(2,6-dimethoxyphenoxyethyl)aminomethyl-1,4-benzodioxane hydrochloride). Receptor proteins were filtered and washed, the filters were then counted to determine [^3H]MK-912 specifically bound. Compounds were screened at 1 μM or lower, using 1% DMSO as vehicle. Compounds of the invention were tested in this biochemical assay. Biochemical assay results for representative compounds were presented as the percent inhibition of specific binding in Table 3.

Test [4] addresses T4, human recombinant adrenergic α1D receptor (Homo sapiens, UniProt P25100).
T4 construct: expressed in transfected cells; host or cells: human embryonic kidney (HEK-293) cells
T4 sequence (P25100 1-572): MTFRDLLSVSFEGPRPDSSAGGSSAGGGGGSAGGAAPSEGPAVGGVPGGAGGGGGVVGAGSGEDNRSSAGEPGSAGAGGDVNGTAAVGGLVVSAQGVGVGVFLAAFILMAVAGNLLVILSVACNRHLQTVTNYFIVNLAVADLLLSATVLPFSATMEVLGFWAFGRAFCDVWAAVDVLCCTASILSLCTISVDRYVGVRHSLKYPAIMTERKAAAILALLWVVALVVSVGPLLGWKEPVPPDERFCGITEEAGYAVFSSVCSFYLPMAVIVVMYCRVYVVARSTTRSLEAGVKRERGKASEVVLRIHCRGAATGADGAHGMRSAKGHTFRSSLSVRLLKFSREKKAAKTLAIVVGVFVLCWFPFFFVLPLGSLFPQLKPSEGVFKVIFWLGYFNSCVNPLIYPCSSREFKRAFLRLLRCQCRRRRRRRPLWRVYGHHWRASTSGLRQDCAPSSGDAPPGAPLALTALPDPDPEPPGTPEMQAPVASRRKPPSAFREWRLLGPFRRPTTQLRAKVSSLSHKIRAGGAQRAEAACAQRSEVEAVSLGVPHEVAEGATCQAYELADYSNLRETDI
As to the kind of experiment: Adrenergic α1D radioligand binding assay. The following applies: 1 μM; [3H]Prozosin specific binding; read-out: Percent Inhibition of ligand binding, Adrenergic (1 μM ligand conc.) α1D. How it is done: To evaluate in radioligand binding assays the activity of compounds of the invention, human recombinant adrenergic α1D receptor expressed in human embryonic kidney (HEK-293) cells [Kenny, B. A. et al. Br. J. Pharmacol. (1995), 115(6):981] in a 50 mM Tris-HCl buffer, pH 7.4, was used. Compounds of invention were incubated with 0.6 nM [^3H]Prozosin for 60 min. at 25° C. Non-specific binding was estimated in the presence of 10 μM phentolamine. Receptor proteins were filtered and washed, the filters were then counted to determine [^3H]Prozosin specifically bound. Compounds were screened at 1 μM or lower, using 1% DMSO as vehicle. Compounds of the invention were tested in this biochemical assay. Biochemical assay results for representative compounds were presented as the percent inhibition of specific binding in Table 3.

T1 sequence (P25021 whole entry): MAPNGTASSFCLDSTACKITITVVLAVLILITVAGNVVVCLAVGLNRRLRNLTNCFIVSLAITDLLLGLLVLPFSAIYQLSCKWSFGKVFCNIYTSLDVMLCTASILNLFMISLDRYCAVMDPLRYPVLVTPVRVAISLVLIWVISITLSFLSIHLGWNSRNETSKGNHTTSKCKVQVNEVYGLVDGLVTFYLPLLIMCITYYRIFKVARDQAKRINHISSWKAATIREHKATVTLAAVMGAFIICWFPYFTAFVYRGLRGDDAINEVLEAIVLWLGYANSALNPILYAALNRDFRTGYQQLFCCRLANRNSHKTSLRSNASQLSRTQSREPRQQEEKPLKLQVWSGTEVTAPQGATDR

For `Cc1ccc2c(c1)c1c(n2CC(=O)c2ccc(Cl)cc2)CN2CCC1C2` (centres unmarked) [Compound 29], the inhibition at 1 µM in test [1] was 19%; in test [2], 32%; in test [3], 89%; in test [4], 42%.

Turning to `Cc1ccc2c(c1)c1c(n2CC(C)(O)c2ccc(Cl)c(Cl)c2)CN2CCC1C2` (centres unmarked) [Compound 13], the inhibition at 1 µM in test [1] is 8%; in test [2], 17%; in test [3], 39%; in test [4] it was 14%.

On to `Cc1ccc2c(c1)c1c(n2CC(=O)N2CCCCC2)CN2CCC1C2` (centres unmarked) [Compound 7], for which the inhibition at 1 µM was -4% in test [1], 0% in test [2], 9% in test [3] and -7% in test [4].

As for `Cc1ccc2c(c1)c1c(n2CC(C)(O)c2ccc(Cl)cc2)CN2CCC1C2` (centres unmarked) [Compound 16], the inhibition at 1 µM was determined as 10% in test [1], 29% in test [2], 28% in test [3] and 24% in test [4].

Take `Cc1ccc2c(c1)c1c(n2CCc2cncc(F)c2)CN2CCC1C2` (centres unmarked) [Compound 9]: the inhibition at 1 µM in test [1] turned out to be 6%; in test [2] it was 40%; in test [3] it was 2%; in test [4] it was 24%.

Source of the values: patent US9271971B2, “Pyrido[3,4-B]indoles and methods of use” (Medivation Technologies, Inc., priority 2009, dated 2016).
